Reference: article PMC12102759 (Protein Science : A Publication of the Protein Society, 2025)
Like-named read-outs stand apart in the source and are kept apart here.

Test system: G3BP1 NFT2
Assay type: binding, human
Conditions: library DMS-CoV, bait G3BP1 NFT2, prey N, listed as aa = residue placed at this position, column sums to 1

## RNAPRITFGGPSDSTG T7H (RNAPRIHFGGPSDSTG)
Peptide RNAPRITFGGPSDSTG
  DMS PSSM value, T (position 7): 0

## RNAPRITFGGPSDSTG S12M (RNAPRITFGGPMDSTG)
Peptide RNAPRITFGGPSDSTG
  DMS PSSM value, S (position 12): 0

## APRITFGGPSDSTGSN G8T (APRITFGTPSDSTGSN)
Peptide APRITFGGPSDSTGSN
  DMS PSSM value, G (position 8): 0.001267

## RNAPRITFGGPSDSTG I6K (RNAPRKTFGGPSDSTG)
Peptide RNAPRITFGGPSDSTG
  DMS PSSM value, I (position 6): 0

## RNAPRITFGGPSDSTG G10L (RNAPRITFGLPSDSTG)
Peptide RNAPRITFGGPSDSTG
  DMS PSSM value, G (position 10): 0

## RNAPRITFGGPSDSTG F8E (RNAPRITEGGPSDSTG)
Peptide RNAPRITFGGPSDSTG
  DMS PSSM value, F (position 8): 0

## RNAPRITFGGPSDSTG S12Y (RNAPRITFGGPYDSTG)
Peptide RNAPRITFGGPSDSTG
  DMS PSSM value, S (position 12): 0

## RNAPRITFGGPSDSTG F8G (RNAPRITGGGPSDSTG)
Peptide RNAPRITFGGPSDSTG
  DMS PSSM value, F (position 8): 0

## APRITFGGPSDSTGSN P2T (ATRITFGGPSDSTGSN)
Peptide APRITFGGPSDSTGSN
  DMS PSSM value, P (position 2): 0

## APRITFGGPSDSTGSN D11E (APRITFGGPSESTGSN)
Peptide APRITFGGPSDSTGSN
  DMS PSSM value, D (position 11): 0.08423

## APRITFGGPSDSTGSN P9I (APRITFGGISDSTGSN)
Peptide APRITFGGPSDSTGSN
  DMS PSSM value, P (position 9): 0.01105

## RNAPRITFGGPSDSTG G10A (RNAPRITFGAPSDSTG)
Peptide RNAPRITFGGPSDSTG
  DMS PSSM value, G (position 10): 1

## RNAPRITFGGPSDSTG P11D (RNAPRITFGGDSDSTG)
Peptide RNAPRITFGGPSDSTG
  DMS PSSM value, P (position 11): 0

## APRITFGGPSDSTGSN T13Y (APRITFGGPSDSYGSN)
Peptide APRITFGGPSDSTGSN
  DMS PSSM value, T (position 13): 0.001423

## RNAPRITFGGPSDSTG T15G (RNAPRITFGGPSDSGG)
Peptide RNAPRITFGGPSDSTG
  DMS PSSM value, T (position 15): 0

## RNAPRITFGGPSDSTG N2H (RHAPRITFGGPSDSTG)
Peptide RNAPRITFGGPSDSTG
  DMS PSSM value, N (position 2): 0

## RNAPRITFGGPSDSTG I6V (RNAPRVTFGGPSDSTG)
Peptide RNAPRITFGGPSDSTG
  DMS PSSM value, I (position 6): 0.768

## APRITFGGPSDSTGSN A1H (HPRITFGGPSDSTGSN)
Peptide APRITFGGPSDSTGSN
  DMS PSSM value, A (position 1): 0.001405

## RNAPRITFGGPSDSTG S12V (RNAPRITFGGPVDSTG)
Peptide RNAPRITFGGPSDSTG
  DMS PSSM value, S (position 12): 0

## RNAPRITFGGPSDSTG P4Y (RNAYRITFGGPSDSTG)
Peptide RNAPRITFGGPSDSTG
  DMS PSSM value, P (position 4): 0

## RNAPRITFGGPSDSTG T15N (RNAPRITFGGPSDSNG)
Peptide RNAPRITFGGPSDSTG
  DMS PSSM value, T (position 15): 0

## APRITFGGPSDSTGSN G8R (APRITFGRPSDSTGSN)
Peptide APRITFGGPSDSTGSN
  DMS PSSM value, G (position 8): 0

## RNAPRITFGGPSDSTG P4H (RNAHRITFGGPSDSTG)
Peptide RNAPRITFGGPSDSTG
  DMS PSSM value, P (position 4): 0

## APRITFGGPSDSTGSN A1K (KPRITFGGPSDSTGSN)
Peptide APRITFGGPSDSTGSN
  DMS PSSM value, A (position 1): 0

## RNAPRITFGGPSDSTG T7N (RNAPRINFGGPSDSTG)
Peptide RNAPRITFGGPSDSTG
  DMS PSSM value, T (position 7): 0

## RNAPRITFGGPSDSTG T7W (RNAPRIWFGGPSDSTG)
Peptide RNAPRITFGGPSDSTG
  DMS PSSM value, T (position 7): 0

## RNAPRITFGGPSDSTG I6Y (RNAPRYTFGGPSDSTG)
Peptide RNAPRITFGGPSDSTG
  DMS PSSM value, I (position 6): 0

## APRITFGGPSDSTGSN D11P (APRITFGGPSPSTGSN)
Peptide APRITFGGPSDSTGSN
  DMS PSSM value, D (position 11): 0.007134

## RNAPRITFGGPSDSTG S12N (RNAPRITFGGPNDSTG)
Peptide RNAPRITFGGPSDSTG
  DMS PSSM value, S (position 12): 0

## RNAPRITFGGPSDSTG G16P (RNAPRITFGGPSDSTP)
Peptide RNAPRITFGGPSDSTG
  DMS PSSM value, G (position 16): 0

## RNAPRITFGGPSDSTG R5I (RNAPIITFGGPSDSTG)
Peptide RNAPRITFGGPSDSTG
  DMS PSSM value, R (position 5): 0.009613

## RNAPRITFGGPSDSTG D13S (RNAPRITFGGPSSSTG)
Peptide RNAPRITFGGPSDSTG
  DMS PSSM value, D (position 13): 0

## RNAPRITFGGPSDSTG G10E (RNAPRITFGEPSDSTG)
Peptide RNAPRITFGGPSDSTG
  DMS PSSM value, G (position 10): 0

## APRITFGGPSDSTGSN G8A (APRITFGAPSDSTGSN)
Peptide APRITFGGPSDSTGSN
  DMS PSSM value, G (position 8): 0.9067

## RNAPRITFGGPSDSTG R5S (RNAPSITFGGPSDSTG)
Peptide RNAPRITFGGPSDSTG
  DMS PSSM value, R (position 5): 0.002286

## RNAPRITFGGPSDSTG P4A (RNAARITFGGPSDSTG)
Peptide RNAPRITFGGPSDSTG
  DMS PSSM value, P (position 4): 0

## APRITFGGPSDSTGSN I4M (APRMTFGGPSDSTGSN)
Peptide APRITFGGPSDSTGSN
  DMS PSSM value, I (position 4): 0

## RNAPRITFGGPSDSTG P4S (RNASRITFGGPSDSTG)
Peptide RNAPRITFGGPSDSTG
  DMS PSSM value, P (position 4): 0

## APRITFGGPSDSTGSN S12A (APRITFGGPSDATGSN)
Peptide APRITFGGPSDSTGSN
  DMS PSSM value, S (position 12): 0.01432

## APRITFGGPSDSTGSN G14S (APRITFGGPSDSTSSN)
Peptide APRITFGGPSDSTGSN
  DMS PSSM value, G (position 14): 0.004295

## APRITFGGPSDSTGSN G8H (APRITFGHPSDSTGSN)
Peptide APRITFGGPSDSTGSN
  DMS PSSM value, G (position 8): 0

## APRITFGGPSDSTGSN S12K (APRITFGGPSDKTGSN)
Peptide APRITFGGPSDSTGSN
  DMS PSSM value, S (position 12): 0

## RNAPRITFGGPSDSTG G16F (RNAPRITFGGPSDSTF)
Peptide RNAPRITFGGPSDSTG
  DMS PSSM value, G (position 16): 0

## APRITFGGPSDSTGSN S15A (APRITFGGPSDSTGAN)
Peptide APRITFGGPSDSTGSN
  DMS PSSM value, S (position 15): 0.001992

## RNAPRITFGGPSDSTG F8W (RNAPRITWGGPSDSTG)
Peptide RNAPRITFGGPSDSTG
  DMS PSSM value, F (position 8): 0

## RNAPRITFGGPSDSTG N2A (RAAPRITFGGPSDSTG)
Peptide RNAPRITFGGPSDSTG
  DMS PSSM value, N (position 2): 0
